Measurements taken from the NIST ThermoML archive (doi:10.1016/j.tca.2017.10.021).
± gives the expanded uncertainty stated by the source.

Details: Crystal, Transpiration method

Row | vapor or sublimation pressure (503 K) | vapor or sublimation pressure (543 K) | Structure (SMILES) | vapor or sublimation pressure (463 K) | vapor or sublimation pressure (473 K) | vapor or sublimation pressure (483 K) | vapor or sublimation pressure (493 K) | vapor or sublimation pressure (513 K) | vapor or sublimation pressure (393 K) | vapor or sublimation pressure (403 K) | vapor or sublimation pressure (413 K) | vapor or sublimation pressure (423 K) | vapor or sublimation pressure (435.5 K) | vapor or sublimation pressure (455 K)
1 | 2.758 ± 0.12 kPa | 11.54 ± 0.52 kPa | Cl.N [ammonium chloride (NH4Cl)] | 0.4871 ± 0.02 kPa | 0.7748 ± 0.031 kPa | 1.14 ± 0.045 kPa | 1.683 ± 0.074 kPa | 3.639 ± 0.18 kPa |  |  |  |  |  | 
2 |  |  | CN.Cl [methylammonium chloride] | 0.2868 ± 0.015 kPa | 0.4424 ± 0.018 kPa | 0.7211 ± 0.043 kPa | 1.116 ± 0.057 kPa | 2.499 ± 0.098 kPa | 0.0044 ± 0.0003 kPa | 0.0085 ± 0.0004 kPa | 0.0171 ± 0.0008 kPa | 0.0307 ± 0.0015 kPa | 0.0643 ± 0.003 kPa | 0.1683 ± 0.0068 kPa
